According to PMC6596218, “Anthranilic amide and imidazobenzothiadiazole compounds disrupt Mycobacterium tuberculosis membrane potential” (MedChemComm, 2019):
In brackets after ≈: the same amount, converted by molar mass. Entries after “also recorded” stand apart in the source; their conditions may differ. Like-named read-outs stand apart in the source and are kept apart here.

What was measured:
M. tuberculosis H37Rv = experiment: Minimum bactericidal concentration at pH 4.5 (MBC4.5), luminescence readout; format: cell-based, Mycobacterium tuberculosis; conditions: for MBC: Mycobacterium tuberculosis, H37RV, 168 h; for antitubercular activity (by MBC4.5, in words): pH 4.5
HepG2 cells [1] = experiment: HepG2 cytotoxicity (CellTiter-Glo, 72 h); format: cell-based; conditions: Homo sapiens, mean ± standard deviation, replicates in parentheses
[2] = tested on: M. tuberculosis membrane potential; experiment: M. tuberculosis membrane potential (DiOC2 red/green fluorescence ratio); format: cell-based, Mycobacterium tuberculosis; conditions: CCCP positive control
[3] = tested on: non-replicating M. tuberculosis; experiment: Non-replicating kill kinetics at pH 5.5 (CFU over 21 days); format: cell-based, Mycobacterium tuberculosis; conditions: single replicate
HepG2 cells [4] = format: cell-based, human; conditions: pH 7.4
Method: Measurement of membrane potential in HepG2 human liver cells (ATCC) was adapted from the method published by Huang.[40] Cells were plated at a density of 50 000 cells per well (100 μL) in black-walled 96-well plates and incubated overnight. Culture medium was replaced with the same volume of assay buffer (80 mM NaCl, 75 mM KCl, 25 mM D-glucose, 25 mM HEPES pH 7.4) containing test compounds at indicated concentrations; CCCP and DMSO served as controls. Plates were incubated at 37 °C for 30 min, followed by incubation with 4 μM DiOC2 for 20 min at RT. Cells were washed 4 times with 150 μL assay buffer, and suspended in 100 μL of assay buffer. A Synergy H1 microplate reader (BioTek Instruments) was used to measure fluorescence (488 nm/530 nm and 488 nm/620 nm). Each test compound was evaluated in at least two replicate experiments.

[5] = median, pH 4.5 phosphate citrate buffer, 7 days, 2-log reduction threshold, replicates in parentheses

Compound | MBC (M. tuberculosis H37Rv; [5]) [µM] | IC50 (HepG2 cells [1]) [µM] | further results
O=C(Nc1ccc(Cl)cc1)[C@@H]1CCCC[C@@H]1NS(=O)(=O)c1ccc(Br)cc1 (relative stereo) [Compound 30, cis-2-(4-bromophenylsulfonamido)-N-(4-chlorophenyl)cyclohexanecarboxamide] | > 200 | 76 ± 12 | 
O=C(Nc1ccc(Cl)cc1)[C@@H]1CCCC[C@H]1NS(=O)(=O)c1ccc(Br)cc1 (relative stereo) [Compound 31, trans-2-(4-bromophenylsulfonamido)-N-(4-chlorophenyl)cyclohexanecarboxamide] | > 200 | 67 ± 12 | 
O=C(Nc1ccc(Cl)cc1Cl)c1ccccc1NS(=O)(=O)c1ccc(Br)cc1 [Compound 1] | 6.3 (≈ 3.15 µg/mL) | 6.2 ± 1.1 | MBC4.5 (M. tuberculosis H37Rv; [5]): 6.3 (5) μM; disruption of M. tuberculosis membrane potential at pH 5.6 [2]: comparable disruption to CCCP at concentrations one or more orders of magnitude below their MBC4.5; disruption of M. tuberculosis membrane potential at pH 6.8 [2]: depolarized the membrane nearly as strongly as known uncoupler carbonyl cyanide m-chlorophenyl hydrazone (CCCP)
O=C(Nc1ccc(Cl)cc1)c1ccccc1NS(=O)(=O)c1ccc(Br)cc1 [Compound 3, 2-(4-bromophenylsulfonamido)-N-(4-chlorophenyl)benzamide] | 50 (≈ 23.3 µg/mL) | 11 ± 4.7 | log kill within 7 days ([3]; pH 5.5, 7 days): > 3 log; log kill at 14 days ([3]; pH 5.5, 14 days): > 4 log
O=C(Nc1ccccc1)c1ccccc1NS(=O)(=O)c1ccc(Br)cc1 [Compound 4, 2-(4-bromophenylsulfonamido)-N-phenylbenzamide] | 100 (≈ 43.1 µg/mL) | 30 ± 3.5 | disruption of HepG2 cell membrane potential (HepG2 cells [4]; human, 30 min): decrease in membrane potential in HepG2 cells comparable in magnitude to CCCP at concentrations significantly below the IC50; disruption of M. tuberculosis membrane potential at pH 5.6 [2]: comparable disruption to CCCP at concentrations one or more orders of magnitude below their MBC4.5
CCNC(=O)c1ccccc1NS(=O)(=O)c1ccc(Br)cc1 [Compound 5, 2-(4-bromophenylsulfonamido)-N-ethylbenzamide] | > 200 | > 100 | 
NC(=O)c1ccccc1NS(=O)(=O)c1ccc(Br)cc1 [Compound 6, 2-(4-bromophenylsulfonamido)benzamide] | > 200 | > 100 | disruption of HepG2 cell membrane potential (HepG2 cells [4]; human, 30 min): did not disrupt membrane potential at concentrations up to 200 μM; disruption of M. tuberculosis membrane potential at pH 5.6 [2]: did not disrupt M. tuberculosis membrane potential
O=C(Nc1ccc(Cl)cc1Cl)c1ccccc1NS(=O)(=O)c1ccccc1 [Compound 7, N-(2,4-dichlorophenyl)-2-(phenylsulfonamido)benzamide] | > 200 | 19 ± 9.2 | 
Nc1ccccc1C(=O)Nc1ccc(Cl)cc1Cl [Compound 9, 2-amino-N-(2,4-dichlorophenyl)benzamide] | 200 (≈ 56.2 µg/mL) | 40 ± 2.3 | 
CCNc1ccccc1C(=O)Nc1ccc(Cl)cc1Cl [Compound 10, N-(2,4-dichlorophenyl)-2-(ethylamino)benzamide] | > 200 | > 100 | disruption of HepG2 cell membrane potential (HepG2 cells [4]; human, 30 min): did not disrupt membrane potential at concentrations up to 200 μM; disruption of M. tuberculosis membrane potential at pH 5.6 [2]: caused membrane hyperpolarization
O=C(Nc1ccc(Cl)cc1Cl)c1ccccc1NCc1ccc(Br)cc1 [Compound 12, 2-((4-bromobenzyl)amino)-N-(2,4-dichlorophenyl)benzamide] | > 200 | > 100 | 
CC(=O)Nc1ccccc1C(=O)Nc1ccc(Cl)cc1Cl [Compound 13, 2-acetamido-N-(2,4-dichlorophenyl)benzamide] | > 200 | > 100 | 
O=C(Nc1ccccc1C(=O)Nc1ccc(Cl)cc1Cl)c1ccc(Br)cc1 [Compound 14, 2-(4-bromobenzamido)-N-(2,4-dichlorophenyl)benzamide] | > 200 | > 100 | 
CCCCNC(=O)c1ccccc1NS(=O)(=O)c1ccc(Br)cc1 [Compound 16, 2-(4-bromophenylsulfonamido)-N-butylbenzamide] | 100 (≈ 41.1 µg/mL) | 59 ± 0.71 | antitubercular activity (by MBC4.5, in words) (M. tuberculosis H37Rv): showed measurable anti-tubercular activity; disruption of HepG2 cell membrane potential (HepG2 cells [4]; human, 30 min): decrease in membrane potential in HepG2 cells comparable in magnitude to CCCP at concentrations significantly below the IC50; disruption of M. tuberculosis membrane potential at pH 5.6 [2]: disruption at significantly lower concentrations relative to pH 6.8; also recorded: comparable disruption to CCCP at concentrations one or more orders of magnitude below their MBC4.5; also recorded: larger, more consistent degree of separation from DMSO than CCCP
O=C(NC1CC1)c1ccccc1NS(=O)(=O)c1ccc(Br)cc1 [Compound 17, 2-(4-bromophenylsulfonamido)-N-cyclopropylbenzamide] | > 200 | > 100 | 
C#CCNC(=O)c1ccccc1NS(=O)(=O)c1ccc(Br)cc1 [Compound 18, 2-(4-bromophenylsulfonamido)-N-(pro-2-yn-1-yl)benzamide] | > 200 | 83 ± 12 | 
O=C(NC1CCCCCC1)c1ccccc1NS(=O)(=O)c1ccc(Br)cc1 [Compound 19, 2-(4-bromophenylsulfonamido)-N-cycloheptylbenzamide] | > 200 | 24 ± 6.4 | 

Compound | MBC (M. tuberculosis H37Rv; [5]) [µM] | IC50 (HepG2 cells [1]) [µM] | further results
O=C(NC1C2CC3CC(C2)CC1C3)c1ccccc1NS(=O)(=O)c1ccc(Br)cc1 (stereo not shown) [Compound 20, N-(adamantan-2-yl)-2-(4-bromophenylsulfonamido)benzamide] | > 200 | 20 ± 4.2 | 
O=C(c1ccccc1NS(=O)(=O)c1ccc(Br)cc1)N1CCCCC1 [Compound 21, 4-bromo-N-(2-(piperidine-1-carbonyl)phenyl)benzenesulfonamide] | > 200 | > 100 | 
O=C(c1ccccc1NS(=O)(=O)c1ccc(Br)cc1)N1CCOCC1 [Compound 22, 4-bromo-N-(2-(morpholine-4-carbonyl)phenyl)benzenesulfonamide] | > 200 | > 100 | 
CN1CCN(C(=O)c2ccccc2NS(=O)(=O)c2ccc(Br)cc2)CC1 [Compound 23, 4-bromo-N-(2-(4-methylpiperizine-1-carbonyl)phenyl)benzenesulfonamide] | > 200 | > 100 | 
CN(C(=O)c1ccccc1NS(=O)(=O)c1ccc(Br)cc1)c1ccc(Cl)cc1Cl [Compound 25, 2-(4-bromophenylsulfonamido)-N-(2,4-dichlorophenyl)-N-methylbenzamide] | > 200 | 60 ± 9.9 | antitubercular activity (by MBC4.5, in words) (M. tuberculosis H37Rv): loss of antitubercular activity; disruption of HepG2 cell membrane potential (HepG2 cells [4]; human, 30 min): decrease in membrane potential in HepG2 cells comparable in magnitude to CCCP at concentrations significantly below the IC50; disruption of M. tuberculosis membrane potential at pH 5.6 [2]: maintained its disruption of M. tuberculosis membrane potential at pH 5.6; disruption of M. tuberculosis membrane potential at pH 6.8 [2]: showed some capacity to depolarize the membrane, but the effect was at much higher concentrations
O=C(Nc1ccc(Cl)cc1Cl)c1cccc(NS(=O)(=O)c2ccc(Br)cc2)c1 [Compound 26, 3-(4-bromophenylsulfonamido)-N-(2,4-dichlorophenyl)benzamide] | > 200 | 34 ± 3.5 | antitubercular activity (by MBC4.5, in words) (M. tuberculosis H37Rv): loss of antitubercular activity
O=C(Nc1ccc(Cl)cc1Cl)c1ccccc1S(=O)(=O)c1ccc(Br)cc1 [Compound 27, 2-((4-bromophenyl)sulfonyl)-N-(2,4-dichlorophenyl)benzamide] | > 200 | 89 ± 18 | antitubercular activity (by MBC4.5, in words) (M. tuberculosis H37Rv): loss of antitubercular activity
O=S(=O)(Nc1ccccc1CNc1ccc(Cl)cc1Cl)c1ccc(Br)cc1 [Compound 28, 4-bromo-N-(2-(((2,4-dichlorophenyl)amino)methyl)phenyl)benzenesulfonamide] | > 200 | 33 | 
O=S(=O)(Nc1ccccc1COc1ccc(Cl)cc1Cl)c1ccc(Br)cc1 [Compound 29, 4-bromo-N-(2-((2,4-dichlorophenoxy)methyl)phenyl)benzenesulfonamide] | > 200 | 24 ± 6.4 | 
O=C(Nc1ccc(Cl)cc1)c1ncccc1NS(=O)(=O)c1ccc(Br)cc1 [Compound 32, 3-(4-bromophenylsulfonamido)-N-(4-chlorophenyl)picolinamide] | > 200 | 5 ± 1.4 | 
O=C(Nc1ccc(Cl)cc1)c1cccnc1NS(=O)(=O)c1ccc(Br)cc1 [Compound 33, 2-(4-bromophenylsulfonamido)-N-(4-chlorophenyl)nicotinamide] | > 200 | 20 ± 5.7 | 
FC(F)(F)c1nc2ccc3nsnc3c2[nH]1 [Compound 34] | 75 (≈ 18.3 µg/mL) | 70 ± 11 | 
CCn1cnc2c3nsnc3ccc21 [Compound 35] | 75 (≈ 15.3 µg/mL) | > 100 | 
Nc1ccc2[nH]c(C3CCCCC3)nc2c1 [Compound 36] | 100 (≈ 21.5 µg/mL) | > 100 | 
Cc1nnc(Sc2ccc3nsnc3c2[N+](=O)[O-])s1 [Compound 37] | 19 (≈ 5.92 µg/mL) | 5.6 ± 3.2 | disruption of HepG2 cell membrane potential (HepG2 cells [4]): drop in membrane potential
O=[N+]([O-])c1c(Sc2ccccn2)ccc2nsnc12 [Compound 38] | 25 (≈ 7.26 µg/mL) | 4.8 ± 0.86 | disruption of HepG2 cell membrane potential (HepG2 cells [4]): drop in membrane potential
